According to patent US20040198770A1, “Uses for l-tetrahydropalmatine” (PharmacoGenetics Limited, priority 2003, published 2004):

Columns and labels:
Type in all cases: in vivo
[1] = tested on: ICR mice; assay: Hole-board test; details: 300 s
Experimental: (§1) ICR mice of male sex, weighing 15.6-17.8 g were used, provided by Experimental Animal Centre of HKUST, housed in groups, given food and water ad libitum and maintained on a 12 hour light: 12 hour dark cycle. All of the experimental groups had 12 animals per group.
(§2) For each experimental animal, administered orally 0.2 ml (pH 7.2) of respective solvent at concentrations as stated above for each group (or double-distilled water for normal control group) one hour before testing.
The hole-board apparatus is a 0.5 cm thick walled wood arena of 60×60×30 cm, with four 5 cm equidistant 4 cm diameter holes spaced on the floor. The mice are placed on the centre of the arena and the number of head-dip on the hole and the number of rearing are counted during a 300 second test period (File S. E. et al., “The effects of triazolobenzo-diazepines in two animal tests of anxiety and in the holeboard.”, Br J Pharmacol. 1985 November; 86(3): 729-35; PMID: 2866006). After each trial, the floor of the apparatus was wiped and dried thoroughly with tissue to remove traces of the previous path.

[2] = tested on: ICR mice; assay: Elevated plus-maze test; details: for Closed arm entry % / Closed arm entry No. / Total no. of arm entries / Open arm entry % / Open arm entry No.: 300 s; for Closed arm Time spent / Closed arm time spent % / Open arm time spent % / Open arm Time spent: 300 s test
Experimental: as §1, §2
The elevated plus-maze is made of 0.5 cm thick wood as a horizontal cross consisting of two open arms (25×5 cm) and two opposite arms (25×5 cm) enclosed by 10 cm high walls. The arms extend from a central platform having dimensions of 5×5 cm. The plus-maze is elevated to a height of 40 cm from the floor. The maze is put inside a box with dimensions of 30×30×50 cm. The mice are placed on the central platform of the maze facing a closed arm. The number of arm entries and the time spent in the open and closed arm are counted for 300 seconds (Pellow S. et al., “Anxiolytic and anxiogenic drug effects on exploratory activity in an elevated plus-maze: a novel test of anxiety in the rat”, Pharmacol Biochem Behav. 1986 March; 24(3): 525-9; PMID: 2871560). Arm entry was defined as one half body entered into the arm.

[3] = tested on: ICR mice; assay: Locomotor activity test; details: for No. of Transitions: mice, 1 h before test, 300 s
Experimental: as §1, §2
An apparatus with a brown light-resistant box having dimensions of 60×60×30 cm was used to perform the test. It consists of four cylindrical plastic boxes of 20 cm diameter, each having 6 equally distributed infrared photocells. The locomotor activity was counted automatically during a 300 second test period. A decrease in the number of transitions reflects a decrease in locomotor activity.
Physical reflections existed for this group and there was no abnormal phenomenon in respiratory circulation.

[4] = tested on: ICR mice; assay: Horizontal-wire test; details: for No. of falling: Table 1, mice; for No. of falling / Number of falling: 60 s; for Number of falling: Table 2, mice
Experimental: as §1, §2
Mice are lifted by the tail and allowed to grasp a horizontally strung wire (1 mm diameter, 20 cm long and placed 20 cm above the table) with their forepaws and released (Bonetti E. P. et al., Psychopharmacology (Berl). 1982; 78(1): 8-18; PMID: 6292984). For each experimental animal, the number of falling onto the table in 60 seconds was determined.
There is no significant difference between same dosage l-THP and dl-THP groups.

[5] = mice, oral 0.5 mg/kg, 0.5 mg/kg

CN1C(=O)CN=C(c2ccccc2)c2cc(Cl)ccc21 [DZ, Diazepam, reference compound]
Rearing No. ([1]; oral 1.0 mg/kg): 26.38 ± 8.51 | Total No. (head-dip and rearing) ([1]; oral 1.0 mg/kg): 42.00 ± 7.11 | Closed arm entry % ([2]; mice, oral 1.0 mg/kg): 44.58 ± 4.10% | Closed arm entry No. ([2]; mice, oral 1.0 mg/kg): 16.75 ± 3.26 | Total no. of arm entries ([2]; mice, oral 1.0 mg/kg): 38.25 ± 7.06 | Closed arm Time spent ([2]; mice, oral 1.0 mg/kg): 159.29 ± 14.18 | Closed arm time spent % ([2]; mice, oral 1.0 mg/kg): 54.81 ± 4.53 % | Open arm time spent % ([2]; mice, oral 1.0 mg/kg, 1 mg/kg): 45.19 ± 4.53 % | Open arm entry % ([2]; mice, oral 1.0 mg/kg, 1 mg/kg): 55.42 ± 4.10 %

COc1cc2c(cc1OC)[C@@H]1Cc3ccc(OC)c(OC)c3CN1CC2 [l-THP, l-tetrahydropalmatine]
medicinal effect under high dosage ([3]; 20 mg/kg): inhibitive effect on CNS and myorelaxation | No. of Transitions ([3]; oral 0.5 mg/kg): 121.1 ± 9.53 | No. of Transitions ([3]; oral 1.0 mg/kg): 111.3 ± 11.91 | No. of Transitions ([3]; oral 5.0 mg/kg): 104.5 ± 10.73 | No. of Transitions ([3]; oral 10 mg/kg): 101.4 ± 15.41 | No. of Transitions ([3]; oral 20 mg/kg): 53.0 ± 12.72 | No. of Transitions ([3]; oral 40 mg/kg): 13.6 ± 5.27 | No. of falling ([4]; oral 0.5 mg/kg): 0.4 ± 0.49 | No. of falling ([4]; oral 1.0 mg/kg): 0.4 ± 0.48 | No. of falling ([4]; oral 5.0 mg/kg): 0.5 ± 0.67 | No. of falling ([4]; oral 10 mg/kg): 1.0 ± 0.77 | No. of falling ([4]; oral 20 mg/kg): 4.5 ± 1.50 | No. of falling ([4]; oral 40 mg/kg): 8.5 ± 3.55 | Number of falling ([4]; oral 0.5 mg/kg): 0.40 ± 0.48 | Number of falling ([4]; oral 1.0 mg/kg): 0.40 ± 0.48 | Number of falling ([4]; oral 5.0 mg/kg): 0.50 ± 0.67 | Number of falling ([4]; oral 10 mg/kg): 1.00 ± 0.77 | Number of falling ([4]; oral 30 mg/kg): 18.50 ± 3.54 | oral dosage at which there is no myorelaxation effect ([4]; mice, oral): less than 20 mg/kg | Head-dip No. ([1]; oral 0.05 mg/kg): 15.83 ± 3.01 | Rearing No. ([1]; oral 0.05 mg/kg): 26.83 ± 5.51 | Total No. (head-dip and rearing) ([1]; oral 0.05 mg/kg): 42.67 ± 6.64 | Head-dip No. ([1]; oral 0.1 mg/kg): 18.73 ± 6.56 | Rearing No. ([1]; oral 0.1 mg/kg): 20.36 ± 9.54 | Rearing No. ([1]; oral 0.5 mg/kg): 27.08 ± 13.64 | Total No. (head-dip and rearing) ([1]; oral 0.5 mg/kg): 41.00 ± 10.20 | Rearing No. ([1]; oral 1.0 mg/kg): 23.50 ± 9.27 | Head-dip No. ([1]; oral 2.5 mg/kg): 15.67 ± 4.00 | Rearing No. ([1]; oral 2.5 mg/kg): 22.42 ± 4.06 | Total No. (head-dip and rearing) ([1]; oral 2.5 mg/kg): 38.08 ± 6.43 | Head-dip No. ([1]; oral 5.0 mg/kg): 8.75 ± 5.56 | Optimal dosage for anxiolytic effect ([2]; experimental mice): 1 mg/kg | medicinal effect under medium dosage ([2]; experimental mice, 5 mg/kg): sedative and hypnotic effect | medicinal effect under low dosage ([2]; experimental mice, 0.1-2.5 mg/kg): anxiolytic effect | most medicinal dosage (time spent and percentage of open arm entry) ([2]; mice, oral): 1 mg/kg | Closed arm entry % ([2]; mice, oral 0.05 mg/kg): 67.89 ± 6.77% | Closed arm entry No. ([2]; mice, oral 0.05 mg/kg): 19.33 ± 5.55 | Open arm entry % ([2]; mice, oral 0.05 mg/kg): 32.11 ± 6.77% | Open arm entry No. ([2]; mice, oral 0.05 mg/kg): 8.75 ± 1.36 | Total no. of arm entries ([2]; mice, oral 0.05 mg/kg): 28.08 ± 5.62 | Closed arm Time spent ([2]; mice, oral 0.05 mg/kg): 225.42 ± 12.13 | Closed arm time spent % ([2]; mice, oral 0.05 mg/kg): 80.96 ± 3.55% | Open arm Time spent ([2]; mice, oral 0.05 mg/kg): 53.08 ± 10.40 | Open arm time spent % ([2]; mice, oral 0.05 mg/kg): 19.04 ± 3.55% | number of open arm entry of l-THP greater than dl-THP by ([2]; mice, oral 0.1 mg/kg): 31.7% | percentage of open arm entry of l-THP greater than dl-THP by ([2]; mice, oral 0.1 mg/kg): 40.4% | Closed arm entry % ([2]; mice, oral 0.1 mg/kg): 57.17 ± 4.26% | Closed arm entry No. ([2]; mice, oral 0.1 mg/kg): 15.27 ± 2.41 | Open arm entry % ([2]; mice, oral 0.1 mg/kg): 42.83 ± 4.26 % | Total no. of arm entries ([2]; mice, oral 0.1 mg/kg): 26.82 ± 4.38 | Closed arm Time spent ([2]; mice, oral 0.1 mg/kg): 217.27 ± 15.11 | Closed arm time spent % ([2]; mice, oral 0.1 mg/kg): 76.33 ± 5.61% | Open arm Time spent ([2]; mice, oral 0.1 mg/kg): 68.18 ± 20.68 | Open arm time spent % ([2]; mice, oral 0.1 mg/kg): 23.67 ± 5.61% | Closed arm entry % ([2]; mice, oral 0.5 mg/kg): 58.18 ± 6.37% | Closed arm entry No. ([2]; mice, oral 0.5 mg/kg): 16.17 ± 1.95 | Total no. of arm entries ([2]; mice, oral 0.5 mg/kg): 27.92 ± 4.08 | Closed arm Time spent ([2]; mice, oral 0.5 mg/kg): 205.33 ± 20.02 | Closed arm time spent % ([2]; mice, oral 0.5 mg/kg): 74.19 ± 7.09% | Open arm Time spent ([2]; mice, oral 0.5 mg/kg): 71.75 ± 21.08 | Open arm time spent % [2, 5]: 25.81 ± 7.09 % | Open arm entry % [2, 5]: 41.82 ± 6.37 % | Closed arm entry % ([2]; mice, oral 1.0 mg/kg): 55.53 ± 3.10% | Closed arm entry No. ([2]; mice, oral 1.0 mg/kg): 14.92 ± 1.93 | Open arm entry % ([2]; mice, oral 1.0 mg/kg): 44.47 ± 3.10 % | Total no. of arm entries ([2]; mice, oral 1.0 mg/kg): 26.92 ± 3.61 | Closed arm Time spent ([2]; mice, oral 1.0 mg/kg): 204.00 ± 16.42 | Closed arm time spent % ([2]; mice, oral 1.0 mg/kg): 71.94 ± 6.70% | Open arm time spent % ([2]; mice, oral 1.0 mg/kg, 1 mg/kg): 28.06 ± 6.70 % | Closed arm entry % ([2]; mice, oral 2.5 mg/kg): 59.61 ± 4.06% | Closed arm entry No. ([2]; mice, oral 2.5 mg/kg): 15.92 ± 2.15 | Open arm entry % ([2]; mice, oral 2.5 mg/kg): 40.39 ± 4.09 % | Open arm entry No. ([2]; mice, oral 2.5 mg/kg): 10.92 ± 2.50 | Total no. of arm entries ([2]; mice, oral 2.5 mg/kg): 26.83 ± 4.20 | Closed arm Time spent ([2]; mice, oral 2.5 mg/kg): 227.83 ± 12.15 | Closed arm time spent % ([2]; mice, oral 2.5 mg/kg): 78.04 ± 4.70% | Open arm Time spent ([2]; mice, oral 2.5 mg/kg): 64.75 ± 16.70 | Open arm time spent % ([2]; mice, oral 2.5 mg/kg): 21.96 ± 4.70% | number of open arm entry of l-THP less than dl-THP by ([2]; mice, oral 5 mg/kg): 357.4% | percentage of open arm entry of l-THP less than dl-THP by ([2]; mice, oral 5 mg/kg): 69.5% | Closed arm entry % ([2]; mice, oral 5.0 mg/kg): 70.37 ± 5.03% | Closed arm entry No. ([2]; mice, oral 5.0 mg/kg): 7.83 ± 3.43 | Closed arm Time spent ([2]; mice, oral 5.0 mg/kg): 253.25 ± 24.32 | Closed arm time spent % ([2]; mice, oral 5.0 mg/kg): 88.54 ± 5.48% | Open arm time spent % ([2]; mice, oral 5.0 mg/kg, 5 mg/kg): 11.46 ± 5.48 % | Open arm entry % ([2]; mice, oral 5.0 mg/kg, 5 mg/kg): 29.63 ± 5.03% | increase of percentage of open arm entry compared to the normal control group ([2]; mice, oral 0.1-2.5 mg/kg): 39.31-48.14% | increase of percentage of time spent in open arm compared to the normal control group ([2]; mice, oral 0.1-2.5 mg/kg): 27.19-50.78%
